Measured values published in patent US20190330142A1, “INHIBITORS OF MTOR-DEPTOR INTERACTIONS AND METHODS OF USE THEREOF” (The Regents of the University of California, priority 2016, published 2019).
Read-outs that look alike come from different tables or passages of the source.

Experiments:
8226 MM cell line = assay: MTT cytotoxicity assay, 8226 MM cells; conditions: for anti-MM cytotoxicity in MTT assay compared to parent B: 48 hr MTT
Experimental: In mTORC1, mTOR phosphorylates the p70S6 kinase. Thus, a Western blot was used to test for induction of p70 phosphorylation in this secondary screen. Compounds were tested at 0.5, 1, and 2 uM with 6 hrs in vitro exposure. […] A summary of the p70 phosphorylation data from 4 separate experiments where derivatives were used at 0.5 uM, is shown in FIG. 3B. These first 8 derivatives were also screened for cytotoxicity against the same 8226 MM cell line in 48 hr MTT assays.
P70 phosphorylation was measured in 8226 cells treated for 6 hrs. […] The structures and biological activity of all derivatives are shown in Tables 1-4, categorized by structural modification.
The MTT assay was performed by seeding 1-2×10^4 target cells in 0.1 ml of complete media into wells of a 96 well microtiter plate. After incubation with compounds, the reduction of MTT to formazan by live cells was determined with a microplate ELISA reader equipped with a 570 nm filter.
The induction of p70 phosphorylation by derivative compounds was determined by densitometry, comparing immunoblot signals of phosphorylated p70 vs total p70. This ratio was then compared to that resulting from parental compound B, with the latter ratio arbitrarily placed at ‘1’. The IC50 for MTT cytotoxicity was determined using a range of concentrations of derivatives. Percent apoptosis was enumerated by flow cytometry in drug-treated cultures by subtracting control apoptosis determined from DMSO-treated cultures.

[1] = system: normal peripheral blood lymphocytes (PBLs); assay: survival of normal peripheral blood lymphocytes versus 8226 MM cells; type: cell-based; conditions: 48 hr assays
Experimental: (§1) FIG. 5A-FIG. 5E depict exemplary assay data of compounds disclosed herein. […] Therapeutic indices (TIs) calculated as IC50 PBLs/IC50 for 8226 cells.
(§2) To compare anti-myeloma efficacy to non-specific toxicity, each of these 5 active derivatives were compared to compound B in their ability to inhibit survival of 8226 MM cells versus normal peripheral blood lymphocytes (PBLs). In head-to-head experiments, IC50 values for each target were calculated and compared. […] These derivatives were also tested for their anti-MM cytotoxicity in isogenic lines with RAPTOR knockdown.

MM1.S MM cell line = assay: MTT cytotoxicity assay, MM1.S cells; type: cell-based; conditions: Homo sapiens, 48 hr
Experimental: The MTT assay was performed by seeding 1-2×10^4 target cells in 0.1 ml of complete media into wells of a 96 well microtiter plate. After incubation with compounds, the reduction of MTT to formazan by live cells was determined with a microplate ELISA reader equipped with a 570 nm filter. Quadruplicate wells were run for each group and the SD of each group was always <5% of the mean.

RAPTOR-silenced MM cells = assay: MTT cytotoxicity in RAPTOR-silenced MM cells; type: cell-based; conditions: 48 hrs
Experimental: as §1, §2
The short hairpin RNAs (shRNA)/pLKO.1, targeting RAPTOR or a scrambled sequence (control) were obtained from Addgene. Lentivirus was produced by the UCLA Vector Core facility and stable cell lines were made by transducing cells with lentivirus and selecting in […].

DEPTOR/mTOR binding = target: T1, DEPTOR/mTOR binding (Homo sapiens, UniProt Q8TB45); assay: DEPTOR/mTOR co-immunoprecipitation in 8226 MM cells; type: cell-based; conditions: for DEPTOR/mTOR binding in MM cells: 6 hrs
T1 construct: Western blot confirmed a significant over-expression of DEPTOR protein; host or cells: 8226 multiple myeloma cells

[2] = system: p70 phosphorylation (mTORC1 activity) in 8226 cells; assay: p70 phosphorylation Western blot (TORC1 activity) in 8226 cells; type: cell-based; conditions: 6 hrs; for p70 phosphorylation vs compound B at lower concentrations: as low as 0.25 uM; for induction of p70 phosphorylation: 8226 cells, 0.5 uM, compared to compound B
Experimental: In mTORC1, mTOR phosphorylates the p70S6 kinase.
(§3) The 8226 and MM1.S myeloma cell lines were purchased from ATCC. The cell lines were characterized by FISH analysis and shown to contain MAF/Ig translocations. Western blot confirmed a significant over-expression of DEPTOR protein. Both lines were tested for mycoplasma within the last 6 months and were negative. Western blot assay—Protein was extracted and separated by 12.5% SDS-PAGE as previously described (see new ref below). Proteins were transferred to polyvinylidene difluoride membranes and their expression was detected utilizing specific antibodies purchased from Cell Signaling (Beverly, Mass.).

8226 cells = assay: apoptosis assay (activated caspase 3, flow cytometry) in 8226 cells; type: cell-based; conditions: 48 hrs
Experimental: (§4) These were then studied in more detail. […] This was clearly shown for 4d, 4e, 4 g, and 3 g.
To identify apoptotic cells, a phycoerythrin (PE)-conjugated antibody specific for activated caspase 3 (BD Biosciences) was used. For staining, 10^6 cells were washed with PB S and fixed and permeabilized with 0.5 ml cytofix/cytoperm solution. The cells were then incubated with a 1:5 dilution of PE-conjugated monoclonal anti-caspase 3 antibody for 30 mins and analyzed by flow cytometry.

p21 expression = p21 expression immunoblot; type: cell-based
Experimental: as §4, §3

DEPTOR-mTOR interaction = target: T2, DEPTOR-mTOR interaction (Homo sapiens, UniProt Q8TB45); assay: yeast-2-hybrid screen of NCI library; type: cell-based; conditions: pilot screening, hits
T2 construct: expressed in transfected cells; host or cells: yeast (two-hybrid)
Source text: (§5) The third compound, NSC118305, presented several positions for variation but we were worried about the conjugated diene unit since such polyolefinic units might give a rise to non-selective toxicity. […] Therefore the final compound shown, NSC 126405, which was called simply compound B, was chosen as the first compound to modify to try to improve its activity.

OPM2 = assay: therapeutic index against OPM2 myeloma cell line; type: cell-based
Source text: (§6) FIG. 6A-FIG. 6D depict exemplary assay data for compounds disclosed herein. […] FIG. 6D highlights IC50 data for 3 g and Compound B (NSC126405).

8226 myeloma tumors = assay: subcutaneous xenograft tumor model of myeloma growth; type: in vivo, mice; conditions: 20 mg/kg IP daily for 4 days
Experimental: Peripheral blood was analyzed for white blood cell (WBC), hematocrit (HCT), hemoglobin concentration (HgI) and platelet count.
Briefly, mice were challenged subcutaneously with 5×10^6 8226 cells and when myeloma tumors reached 500 mm^3, mice were treated with DMSO, compound B, or compound 3g (at 20 mg/kg) IP daily for 4 days. Tumor size (mean+/−SD, n=5) was assessed each day (FIG. 8A). *=different from control (DMSO), p<0.05, **=different from compound B, p<0.05. After 4 days of treatment, mice were sacrificed and peripheral blood analyzed for WBC, hematocrit (HCT), hemoglobin concentration (HgI) and platelet count (FIG. 8B). Data are % of control (determination in DMSO-Rx'd mice), mean+/−SD, n=5. *=different from DMSO control, p<0.05.

DEPTOR = target: T3, DEPTOR (Homo sapiens, UniProt Q8TB45); assay: DEPTOR degradation; type: cell-based
T3 construct: endogenous in cells
Source text: FIG. 7A-FIG. 7F depict exemplary assay data for compounds disclosed herein. […] FIG. 7E and FIG. 7F depict data showing the anti-tumor effect was blunted by further transfection of DEPTOR to over-express the protein.

H929 = assay: therapeutic index against H929 myeloma cell line; type: cell-based
Source text: as §6

[3] = system: normal hematopoietic colony forming cells; assay: colony formation of normal hematopoietic colony forming cells; type: cell-based; conditions: concentrations as high as 10 μM
Source text: as §5

[4] = 48 h, read-out: MTT (IC50, uM) 8226

T1 sequence (Q8TB45 whole entry): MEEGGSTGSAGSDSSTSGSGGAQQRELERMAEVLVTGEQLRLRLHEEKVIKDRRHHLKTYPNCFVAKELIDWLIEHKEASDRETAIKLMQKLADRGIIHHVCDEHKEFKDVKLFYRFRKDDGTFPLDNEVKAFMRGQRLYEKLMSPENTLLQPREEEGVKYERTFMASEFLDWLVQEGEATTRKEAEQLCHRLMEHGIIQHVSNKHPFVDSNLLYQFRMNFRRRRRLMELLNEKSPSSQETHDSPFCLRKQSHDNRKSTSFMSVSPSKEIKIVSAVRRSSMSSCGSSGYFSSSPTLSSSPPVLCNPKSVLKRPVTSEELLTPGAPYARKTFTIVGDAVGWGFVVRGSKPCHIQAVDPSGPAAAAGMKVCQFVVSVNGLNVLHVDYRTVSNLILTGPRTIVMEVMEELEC
T2 sequence (Q8TB45 whole entry): as above
T3 sequence (Q8TB45 whole entry): as above

Row | Structure (SMILES) | IC50 (8226 MM cell line; [4]) [µM] | anti-MM cytotoxicity in MTT assay compared to parent B (8226 MM cell line) | therapeutic index (IC50 PBLs/IC50 for 8226 cells) compared to compound B [1] | IC50 (MM1.S MM cell line) [µM] | cytotoxicity against RAPTOR-silenced MM cells vs control shSCRAMBLE (RAPTOR-silenced MM cells) | DEPTOR/mTOR binding in MM cells (DEPTOR/mTOR binding; 0.5 uM) | p70 phosphorylation vs compound B at lower concentrations [2] | apoptosis activity compared to parent compound B (8226 cells) | p21 expression compared to parent compound B (p21 expression) | inhibition of the DEPTOR-mTOR interaction (DEPTOR-mTOR interaction) | induction of p70 phosphorylation [2] | also measured
1 | CC(C)(C)OC(=O)NN=C1C(Cl)=C(Cl)C(Cl)=C1Cl [4g, tert-Butyl 2-(perchlorocyclopenta-2,4-dien-1-ylidene)hydrazine-1-carboxylate] | 0.1 | enhanced cytotoxic effects | significantly improved therapeutic indices | 0.6 | significantly decreased cytotoxicity | prevented DEPTOR/mTOR binding | significantly more effective | enhanced compared to parent compound B | enhanced p21 expression | – | – | –
2 | CCCCCCCCNS(=O)(=O)c1ccccc1 [NSC119670] | – | – | – | – | – | – | – | – | – | specifically inhibited the DEPTOR-mTOR interaction | – | –
3 | Fc1ccc(NN=C2C(Cl)=C(Cl)C(Cl)=C2Cl)cc1 [3k, 1-(4-Fluorophenyl)-2-(perchlorocyclopenta-2,4-dien-1-ylidene)hydrazine] | 0.7 | enhanced cytotoxic effects | significantly improved therapeutic indices | 1.3 | significantly decreased cytotoxicity | prevented DEPTOR/mTOR binding | significantly more effective | enhanced compared to parent compound B | – | – | much better activity | –
4 | CN(C)c1ccc(/C=C2\C=Cc3ccccc32)cc1F [NSC118305] | – | – | – | – | – | – | – | – | – | specifically inhibited the DEPTOR-mTOR interaction | – | –
5 | FC(F)(F)c1cccc(NN=C2C(Cl)=C(Cl)C(Cl)=C2Cl)c1 [compound 3g, 1-(Perchlorocyclopenta-2,4-dien-1-ylidene)-2-(3-(trifluoromethyl)phenyl)hydrazine] | 0.17 | enhanced cytotoxic effects | enhanced therapeutic index | 1 | significantly decreased cytotoxicity | prevented DEPTOR/mTOR binding | significantly more effective | enhanced compared to parent compound B | enhanced p21 expression | – | – | therapeutic index versus NSC126405 (OPM2): enhanced therapeutic index; therapeutic index (IC50 PBLs/IC50 for 8226 cells) compared to compound B ([1]; listed as 3 g): significantly improved therapeutic indices; anti-tumor efficacy (tumor size) (8226 myeloma tumors): more efficacious than NSC 126405; effect on normal WBC counts (8226 myeloma tumors; peripheral blood): only a minimal effect; degradation of DEPTOR (DEPTOR): induces the rapid proteasome-dependent degradation of DEPTOR; binding of DEPTOR to mTOR (DEPTOR/mTOR binding; concentration not given): inhibits binding of DEPTOR to mTOR; therapeutic index versus NSC126405 (H929): enhanced therapeutic index
6 | NN=C1C(Cl)=C(Cl)C(Cl)=C1Cl [compound B, (Perchlorocyclopenta-2,4-dien-1-ylidene)hydrazine, reference compound] | – | – | – | 3 | – | ineffective | – | – | – | specifically inhibited the DEPTOR-mTOR interaction | consistently ineffective | toxicity to normal hematopoietic colony formation [3]: not toxic to colony formation; IC50 (8226 MM cell line; 48 h, read-out: MTT (IC50, uM) 8226, 48 hr): 1.3 µM; IC50 (8226 MM cell line; read-out: MTT (IC50, uM) 8226, 48 hr): 1.5 µM; DEPTOR/mTOR binding in MM cells (DEPTOR/mTOR binding; 1 uM): prevents DEPTOR/mTOR binding
